Measurements reported in a melting point compilation (Tetko et al.).

SMILES	melting point
O=C(C=Cc1ccc(Cl)cc1)c1ccc(Cl)cc1	158 °C
N#Cc1ccc2sccc2c1	69 to 71 °C
COP(=S)(OC)Oc1ccc(S(=O)(=O)N(C)C)cc1	53 °C
Cc1c(S(=O)(=O)Cl)sc2ccc(Cl)cc12	153 °C
O=C(C=Cc1ccc(O)c(O)c1)OC1CC(O)(C(=O)O)CC(O)C1O (stereo unspecified)	205 to 209 °C
BrC(=NNc1ccccc1)c1ccccc1	190 °C
CC1(C)CCC(C)(C)c2cc(S(=O)(=O)Cl)ccc21	78 to 80 °C
Oc1c(I)cc(Cl)c2cccnc12	178 °C
O=C1NC(=O)C2(c3ccc(Cl)cc3)c3ccccc3CCN12 (stereo unspecified)	215 to 216 °C
O=C(O)C1c2ccccc2C(=O)N(Cc2ccc(F)cc2)C1c1cccnc1 (stereo unspecified)	250 °C
O=C(c1ccc2ccccc2c1)c1noc(-c2ccc(Br)cc2)c1S(=O)(=O)c1ccccc1	173 °C
O=C(C1=NOC2C(=O)N(c3ccccc3)C(=O)C12)c1ccccc1 (stereo unspecified)	161 °C
O=c1c2ccccc2nc2n1CCc1c-2[nH]c2ccccc12	260 °C
Cc1noc(-c2ccccc2)c1I	66 to 68 °C
NCC(F)C(=O)O (racemic)	222 to 223 °C
Oc1ccc(Cl)cc1Sc1cc(Cl)ccc1O	174 °C
C/C(=N\c1ccc(C(=O)O)c(O)c1)c1c(O)c2ccccc2n(-c2ccccc2)c1=O	177 °C
OC1(C2(O)CCCCC2)CCCCC1	127 °C
c1ccc(CN2CCCNCCN(Cc3ccccc3)CCCNCC2)cc1	68 °C
O=C(Cl)c1ccc(Oc2ccccn2)cc1	80 to 81 °C
O=C(CN1CCNCC1)N1CCCC1	75 to 76 °C
Nc1cc2ccccc2oc1=O	136 °C

SMILES	melting point
O=S(=O)(Cl)c1occc1C1OCCO1	34 to 39 °C
CN1C(=O)N2CCc3ccccc3C2(c2ccc(Cl)cc2)C1=O (stereo unspecified)	121 to 122 °C
O=Cc1ccc(N2CCOCC2)c([N+](=O)[O-])c1	53 to 55 °C
CCOC(=O)c1cn2nc(OP(=S)(OCC)OCC)cc2nc1C	51 °C
Cc1cnc(Cl)c(Br)c1	66 to 68 °C
CCCCN(CC)c1c([N+](=O)[O-])cc(C(F)(F)F)cc1[N+](=O)[O-]	66 °C
c1ccc(-c2sc(-c3ccccc3)c(-c3ccccc3)c2-c2ccccc2)cc1	182 °C
COc1ccc(-c2nnc3n2NC(c2ccco2)S3)cc1 (stereo unspecified)	161 °C
O=c1c2ccccc2cc2ccc3ccccc3n12	125 °C
CC(CCc1ccccc1)NC(C)C(O)c1ccc(O)cc1 (stereo unspecified)	112 °C
O=S1(=O)CCCCO1	13.5 °C
O=C(n1ccnc1)C(F)(F)C(F)(F)C(F)(F)F	11 °C
O=C1COCC(=O)O1	90 to 95 °C
Nc1nn2c(C(F)(F)F)cc(=O)[nH]c2c1/N=N/c1ccc(O)cc1	268 °C
Cn1nc(C(=O)Cl)c2ccccc21	126 °C
Nn1c(Cc2ccccc2)nc2ccccc2c1=O	111 °C
CC(=O)Nc1ccccc1Br	99 °C
FC(F)(F)c1cc2ccccc2cn1	31 °C
CC12CC(=O)C3C(CCC4=CC(=O)CCC43C)C1CCC2=O (stereo unspecified)	222 °C
CN(C)C1=C(C=C(c2ccc(F)cc2)c2ccc(F)cc2)C(=O)N(c2ccccc2)C1=O	157 °C
O=C1CCC(=O)N1Br	177 °C
OCC1CCNCC1	59 °C

SMILES	melting point
c1ccc(-c2ccc3ncccc3c2)cc1	110 °C
O=C1CC(C(=O)O)CC(=O)C1=C(O)C1CC1 (stereo unspecified)	144 °C
CC1(C)CCC2(C)CCC3(C)C(=CCC4C5(C)CCC(O)C(C)(C)C5CCC43C)C2C1 (stereo unspecified)	197 °C
CC1(C)CCC(=Cc2ccc(Cl)cc2)C1(O)Cn1cncn1 (stereo unspecified)	140 °C
Cn1c(=O)c(C2=NNC(=O)C2=Cc2cccc(Cl)c2)c(O)c2ccccc21	265 °C
Cc1c(F)cccc1[N+](=O)[O-]	7 °C
CN1C(=O)CCS(=O)(=O)C1c1ccc(Cl)cc1 (stereo unspecified)	116 °C
Ic1c(-c2ccccc2)cccc1-c1ccccc1	115 °C
OCc1ccc2ncccc2c1	79 to 80 °C
Cc1ccc2c(c1)C(=O)OC2=O	88 to 92 °C
Clc1ccc2c(N3CCNCC3)ccnc2c1	113 to 116 °C
NC1c2ccccc2CC1O (stereo unspecified)	117 to 121 °C
O=C(CCc1ccccc1)NNc1ccccc1	117 °C
O=C(CC(C(=O)c1ccccc1)C(CC(=O)c1ccccc1)C(=O)c1ccccc1)c1ccccc1 (stereo unspecified)	169 °C
CC1(C)C(C=C2CCSC2=O)C1C(=O)OCc1coc(Cc2ccccc2)c1 (stereo unspecified)	31 °C
N#Cc1cccc(C(N)=O)c1	223 °C
CC12CCC(=O)CC1CCC1C2CCC2(C)C1CCC21OCCS1 (stereo unspecified)	201 °C
Nc1ccc(Cc2ccccc2)cc1	37 °C
CCCCSP(SCCCC)SCCCC	100 °C
O=C(c1ccc(C(=O)C(Cl)Cl)cc1)C(Cl)Cl	143 °C

The next lines start with the values.

melting point	SMILES
150 to 152 °C	Cc1onc(-c2c(Cl)cccc2Cl)c1C(=O)NN
221 to 222 °C	Cc1n[nH]c(C)c1-c1ccc(-c2ccccc2)cc1
360 °C	Nc1cc(C(=O)O)cc(C(=O)O)c1
30 °C	CCOC(=S)SSC(=S)OCC
330 °C	CC(=O)Nc1cc(NC(C)=O)c(C=Cc2ccccc2)c(NC(C)=O)c1C=Cc1ccccc1
79 °C	CC(O)C(NC(=O)OC(C)(C)C)C(=O)O (stereo unspecified)
156 °C	O=C(O)CSCC(=O)NC1CCSC1=O (stereo unspecified)
14 °C	C=C(CCl)CCl
206 to 210 °C	CCOC(=O)c1c(C)[nH]c2ccc(O)cc12
63.8 °C	CCCCCCCCCCCCCCCCCCCCCCCCCC(=O)OC
-26 °C	CCOC(=O)C(C)O (stereo unspecified)
30 °C	C=COCCCCCCCCCCCCCCCCCC
46 °C	Cc1c(Cl)cc(Cl)c(O)c1Cl
86 to 88 °C	CCOC(=O)c1csnn1
189 °C	COc1ccc(C(=O)NNC(=O)c2cccc3ccccc23)cc1
109 to 110 °C	Cc1ccc(S(=O)(=O)CC(=O)c2ccccc2)cc1
-60 °C	CC(O)CC(C)(C)C (stereo unspecified)
112 °C	O=C(CS)Nc1ccc2ccccc2c1
-39.1 °C	CCCCCCCCOC=O
206 °C	CC(=O)OC1(C(C)=O)CCC2C3CC(C(F)(F)F)C4=CC(=O)CCC4(C)C3CCC21C (stereo unspecified)
-23 °C	CCCCC(C)O (stereo unspecified)
85 to 90 °C	CCCCCc1ccc(C(=O)O)cc1
182 °C	Cc1cc2cc3ccccc3cc2cc(C)c1=O

melting point	SMILES
156 °C	COc1ccc(C=Cc2cc(OC)cc(=O)o2)cc1
90 °C	O=C(O)Cc1ccc(Cl)c(Cl)c1
19 °C	CCCCCCCCCC(=O)CCC
266 °C	CC1C(=O)C23C(O)CC4C(C)(CO)CCCC4(CO)C2C(O)CC1C3O (stereo unspecified)
110 °C	NS(=O)(=O)c1ccc(SCCO)c(F)c1
82 °C	CC1CCC(C)(C(=O)COC(=O)c2ccccc2)C1(C)C (stereo unspecified)
158 to 160 °C	Cc1n[nH]c(SCC#N)n1
38 to 40 °C	CC(=O)c1ccccc1OCc1ccccc1
110 °C	NC(=S)c1cccc(F)c1
56 °C	CSc1ccc(O)cc1C
37 to 45 °C	O=C(CC(=O)C(F)F)c1ccccc1
123 to 124 °C	COc1ccc2c(CC(=O)O)coc2c1
2 °C	Cc1cccc(Cl)c1N
41 °C	CCCCCCCCCCCCCCCCCC#N
134 to 137 °C	CCOC(=O)c1c(SC)nc2ccc(Cl)cc2c1Cl
249 °C	CCOc1ccc2[nH]c(S)nc2c1
300 °C	Nc1ccc(O)c2c1C(=O)c1c(O)ccc(N)c1C2=O
89 to 92 °C	COc1cc(OC)c(Cl)cc1N
-30.6 °C	CCCCCCCC(=O)OCCCCCC
200 °C	Cc1nc(-c2ccc(C(=O)O)s2)cs1
235 to 238 °C	Nc1c(Br)cc(Br)c(F)c1C(=O)O
50 °C	CCCCCCCCCCCCCC(O)CC (stereo unspecified)
156 to 157 °C	CCOC(=O)c1cn2nc(Cl)ccc2n1

melting point	SMILES
218 °C	Cc1c(C(=O)O)sc2c1CCCC2
34 °C	CCCC(O)C(=O)O (stereo unspecified)
68 °C	CCOC(=O)C(C)(C#N)c1ccccc1[N+](=O)[O-] (stereo unspecified)
145 to 147 °C	CC(C)(C)OC(=O)N1CCSCC1C(=O)O (stereo unspecified)
181 to 183 °C	O=C(COc1ncn(-c2ccc(Cl)cc2)n1)NNC(=S)Nc1ccc(F)cc1
29 °C	COC(=O)c1ccc(C)c(Cl)c1
25 °C	CCCCCC(O)CCCCC
154 °C	CC(=O)c1ccc(O)c(C)c1O
114 °C	COc1ccc(C2Cc3ccccc3C(O)O2)cc1 (stereo unspecified)
114 °C	CC(C)C1CCC2(C)CC(O)C3(C)CCC12O3 (stereo unspecified)
182 °C	COc1cccc(C=C(C(=O)O)C(=Cc2cccc(OC)c2)C(=O)O)c1
72 to 74 °C	O=C(O)CCc1cccc(Cl)c1
127 °C	CC1=C(C)C(=O)c2ccccc2C1=O
103 °C	Cc1c(C(C)C)c(=O)n(-c2ccccc2)n1C
137 to 138 °C	Cc1cc(Br)c(N)cc1OCc1ccccc1
38.5 °C	CCC(=O)C=Cc1ccccc1
205 °C	CCCCCC(=O)Cc1cc(O)cc2c1C(=O)Oc1cc(O)c(C(=O)O)c(CCCCC)c1O2
202 °C	Cc1c(O)ncnc1Cl
61.5 °C	CCCCCCCOc1ccc(O)cc1
107 °C	O=C(OCc1ccccc1Br)ON1C(=O)CCC1=O
116 to 118 °C	Cc1nc(-c2cccc(S(=O)(=O)Cl)c2)cs1
